Measured values from patent publication US6864266B2, “4-piperidinyl alkyl amine derivatives as muscarinic receptor antagonists” (Syntex (U.S.A.) LLC, priority 2001, dated 2005).

Columns and labels:
[1] = biological target: T1, recombinant human muscarinic receptor m2 (Homo sapiens, UniProt P08172); test: Radioligand binding studies, [3H]N-methyl scopolamine, scintillation proximity assay; conditions: CHO cell membranes, pIC50 converted to pKi by Cheng-Prusoff
T1 construct: expressed in transfected cells; host or cells: Chinese hamster ovary (CHO) cells, membrane preparation
T1 sequence (P08172 1-466): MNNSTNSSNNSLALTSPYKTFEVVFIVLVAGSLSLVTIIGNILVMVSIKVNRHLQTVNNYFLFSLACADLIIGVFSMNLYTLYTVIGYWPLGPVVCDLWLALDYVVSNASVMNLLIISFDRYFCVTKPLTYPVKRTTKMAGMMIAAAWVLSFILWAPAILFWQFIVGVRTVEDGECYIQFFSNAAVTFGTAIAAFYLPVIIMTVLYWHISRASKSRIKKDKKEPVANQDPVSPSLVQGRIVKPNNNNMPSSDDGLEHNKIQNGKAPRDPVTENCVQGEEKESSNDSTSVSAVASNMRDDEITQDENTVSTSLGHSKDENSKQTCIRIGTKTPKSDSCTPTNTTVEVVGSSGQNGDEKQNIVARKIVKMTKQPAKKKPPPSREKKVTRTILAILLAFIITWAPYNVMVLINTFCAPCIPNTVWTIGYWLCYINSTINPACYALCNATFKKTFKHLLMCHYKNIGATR
Protocol: (§1) The compounds of this invention are muscarinic receptor antagonists. The muscarinic receptor affinity of test compounds can be determined by an in vitro receptor binding assay which utilizes a cell membrane preparation from the Chinese hamster ovary cells expressing the recombinant human muscarinic receptors (M1-M5), and is described in more detail in Example 18.
(§2) The inhibitory activity of compounds of this invention in vitro was determined using a modification of the method described in Hegde, S. S. et al. (1997) Br. J. Pharmacol., 120, 1409-1418.
(§3) Cell membranes from Chinese hamster ovary cells expressing the recombinant human muscarinic receptors (m1-m5) were employed. The assays were conducted with the radioligand [^3H]N-methyl scopolamine(0.4 nM, specific activity 84 Ci·mmol^−1) in a final volume of 0.25 mL Tris-Krebs buffer. Non-specific binding was defined with 1 μM atropine. Assays were performed using scintillation proximity assay technology. Competition-displacement curves were generated using 10 concentrations of test compounds and were analyzed by iterative curve fitting to a four parameter logistic equation. pIC50 values (−log of the IC50) were converted to pKi values using the Cheng-Prusoff equation.

[2] = biological target: T2, recombinant human muscarinic receptor m3 (Homo sapiens, UniProt P20309); test: as above; conditions: CHO cell membranes, pIC50 converted to pKi by Cheng-Prusoff
T2 construct: expressed in transfected cells; host or cells: Chinese hamster ovary (CHO) cells, membrane preparation
T2 sequence (P20309 whole entry): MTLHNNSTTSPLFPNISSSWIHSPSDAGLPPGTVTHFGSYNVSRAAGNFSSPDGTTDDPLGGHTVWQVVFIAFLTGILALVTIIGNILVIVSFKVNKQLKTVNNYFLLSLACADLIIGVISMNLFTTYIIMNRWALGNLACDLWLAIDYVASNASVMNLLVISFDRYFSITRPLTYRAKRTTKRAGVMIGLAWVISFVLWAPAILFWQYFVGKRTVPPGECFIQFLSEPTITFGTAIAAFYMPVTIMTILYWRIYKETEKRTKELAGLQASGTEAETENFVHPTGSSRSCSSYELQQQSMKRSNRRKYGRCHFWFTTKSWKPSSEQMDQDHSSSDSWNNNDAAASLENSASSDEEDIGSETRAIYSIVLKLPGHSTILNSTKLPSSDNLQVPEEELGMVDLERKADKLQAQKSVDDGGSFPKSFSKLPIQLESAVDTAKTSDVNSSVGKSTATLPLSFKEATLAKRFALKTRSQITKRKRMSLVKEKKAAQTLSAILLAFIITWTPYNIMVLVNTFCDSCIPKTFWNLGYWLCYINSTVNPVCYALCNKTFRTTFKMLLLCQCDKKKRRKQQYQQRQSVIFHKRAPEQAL
Protocol: as §1, §2, §3

Structure (SMILES) | Ki [1] | Ki [2]
CCN(CC1CCN(C(=O)N2CCOCC2)CC1)C1CCc2ccc(NC(=O)c3ccc(S(C)(=O)=O)cc3)cc2C1 (stereo not drawn) [Cpd 2, N-(7-{ethyl-[1-(morpholine-4-carbonyl)-piperidin-4-ylmethyl]-amino}-5,6,7,8-tetrahydro-naphthalen-2-yl)-4-methanesulfonyl-benzamide] | 47.9 nM | 1200 nM
CCN(CC1CCN(C(=O)NC(C)C)CC1)C1CCc2ccc(NC(=O)c3ccc(F)cc3)cc2C1 (stereo not drawn) [Cpd 7, 4-({ethyl-[7-(4-fluoro-benzoylamino)-1,2,3,4-tetrahydro-naphthalen-2-yl]-amino}-methyl)-piperidine-1-carboxylic acid isopropylamide] | 10.5 nM | 646 nM
CCCN(CC1CCN(C(=O)NC)CC1)C1CCc2ccc(OC)cc2C1 (stereo not drawn) [Cpd 25, 4-{[(7-methoxy-1,2,3,4-tetrahydro-naphthalen-2-yl)-propyl-amino]-methyl}-piperidine-1-carboxylic acid methylamide] | 25.1 nM | 102 nM
CCCN(CC1CCN(C(=O)c2ccco2)CC1)C1CCc2cc(OC)c(OC)cc2C1 (stereo not drawn) [Cpd 70, (4-{[(6,7-dimethoxy-1,2,3,4-tetrahydro-naphthalen-2-yl)-propyl-amino]-methyl}-piperidin-1-yl)-furan-2-yl-methanone] | 42.7 nM | 331 nM
CCCN(CC1CCN(S(C)(=O)=O)CC1)C1CCc2ccc(N)cc2C1 (stereo not drawn) [Cpd 85, N-(1-methanesulfonyl-piperidin-4-ylmethyl)-N-propyl-1,2,3,4-tetrahydro-naphthalene-2,7-diamine] | 12.9 nM | 166 nM
CCCN(CC1CCN(C(=O)N2CCOCC2)CC1)C1CCc2ccc(N)cc2C1 (stereo not drawn) [Cpd 95, (4-{[(7-amino-1,2,3,4-tetrahydro-naphthalen-2-yl)-propyl-amino]-methyl}-piperidin-1-yl)-morpholin-4-yl-methanone] | 5.25 nM | 186 nM
CCCN(CC1CCN(S(C)(=O)=O)CC1)C1CCc2ccc(OCC)cc2C1 (stereo not drawn) [Cpd 104, (7-ethoxy-1,2,3,4-tetrahydro-naphthalen-2-yl)-(1-methanesulfonyl-piperidin-4-ylmethyl)-propyl-amine] | 16.2 nM | 46.8 nM
CCCN(CC1CCN(C(=O)c2ccno2)CC1)C1CCc2ccc(OS(=O)(=O)C(F)(F)F)cc2C1 (stereo not drawn) [Cpd 107, trifluoro-methanesulfonic acid 7-{[1-(isoxazole-5-carbonyl)-piperidin-4-ylmethyl]-propyl-amino}-5,6,7,8-tetrahydro-naphthalen-2-yl ester] | 16.2 nM | 148 nM
CCCN(CC1CCN(C(=O)C2CCNCC2)CC1)C1CCc2ccc(OS(=O)(=O)c3c(C)noc3C)cc2C1 (stereo not drawn) [Cpd 114, 3,5-dimethyl-isoxazole-4-sulfonic acid 7-{[1-(piperidine-4-carbonyl)-piperidin-4-ylmethyl]-propyl-amino}-5,6,7,8-tetrahydro-naphthalen-2-yl ester] | 1.26 nM | 51.3 nM
CCCN(CC1CCN(C(=O)N2CCN(C)CC2)CC1)C1CCc2ccc(OS(=O)(=O)c3c(C)noc3C)cc2C1 (stereo not drawn) [Cpd 115, 3,5-dimethyl-isoxazole-4-sulfonic acid 7-{[1-(4-methyl-piperazine-1-carbonyl)-piperidin-4-ylmethyl]-propyl-amino}-5,6,7,8-tetrahydro-naphthalen-2-yl ester] | 21.9 nM | 67.6 nM
CCCN(CCC1CCN(C(=O)C2CCNCC2)CC1)[C@@H]1CCc2ccc(OC)cc2C1 [Cpd 116, (4-{2-[((R)-7-methoxy-1,2,3,4-tetrahydro-naphthalen-2-yl)-propyl-amino]-ethyl}-piperidin-1-yl)-piperidin-4-yl-methanone] | 2.51 nM | 5130 nM
CCCN(CC1CCN(S(C)(=O)=O)CC1)C1CCc2ccc(-c3ccco3)cc2C1 (stereo not drawn) [Cpd 117, (7-furan-2-yl-1,2,3,4-tetrahydro-naphthalen-2-yl)-(1-methanesulfonyl-piperidin-4-ylmethyl)-propyl-amine] | 141 nM | 603 nM
